64 molecules from patent US20160297763A1, “Heteroaryl hydroxamic acid derivatives and their use in the treatment, amelioration or prevention of a viral disease” (priority 2011, published 2016) can be followed below.

Each structure is given as a SMILES string.

One series relates to influenza A virus A/Aichi/2/68 (H3N2). In words: Cytopathic effect (CPE) assay H3N2. Type of series: cell-based, influenza A virus (H3N2) on MDCK cells. The note with it: Influenza A virus, H3N2, activity conc 2 (μM per method); read-out: CPE H3N2 reduction (%). How it is done: A possible measure of the […] antiviral activity of the compounds having the formula I or II is the CPE assay disclosed herein. […] In this connection, the reduction in the virus-mediated cytopathic effect (CPE) upon treatment with the compounds was calculated as follows: The cell viability of infected-treated and uninfected-treated cells was determined using an ATP-based cell viability assay (Promega). The response in relative luminescent units (RLU) of infected-untreated samples was subtracted from the response (RLU) of the infected-treated samples and then normalized to the viability of the corresponding uninfected sample resulting in % CPE reduction.
The influenza A virus (IAV) was obtained from American Tissue Culture Collection (A/Aichi/2/68 (H3N2); VR-547). Virus stocks were prepared by propagation of virus on Mardin-Darby canine kidney (MDCK; ATCC CCL-34) cells and infectious titres of virus stocks were determined by the 50% tissue culture infective dose (TCID50) analysis as described in Reed, L. J., and H. Muench. 1938, Am. J. Hyg. 27:493-497.
MDCK cells were seeded in 96-well plates at 2×10^4 cells/well using DMEM/Ham's F-12 (1:1) medium containing 10% foetal bovine serum (FBS), 2 mM L-glutamine and 1 antibiotics (all from PAA). Until infection the cells were incubated for 5 hrs at 37° C., 5.0 CO2 to form a ˜80% confluent monolayer on the bottom of the well. Each test compound was dissolved in DMSO and generally tested at 25 μM and 250 μM. In those cases where the compounds were not soluble at that concentration they were tested at the highest soluble concentration. The compounds were diluted in infection medium (DMEM/Ham's F-12 (1:1) containing 5 μg/ml trypsin, and 1% antibiotics) for a final plate well DMSO concentration of 1%. The virus stock was diluted in infection medium (DMEM/Ham's F-12 (1:1) containing 5 μg/ml Trypsin, 1% DMSO, and 1% antibiotics) to a theoretical multiplicity of infection (MOI) of 0.05.
After removal of the culture medium and one washing step with PBS, virus and compound were added together to the cells. In the wells used for cytotoxicity determination (i.e. in the absence of viral infection), no virus suspension was added. Instead, infection medium was added. Each treatment was conducted in two replicates. After incubation at 37° C., 5% CO2 for 48 hrs, each well was observed microscopically for apparent cytotoxicity, precipitate formation, or other notable abnormalities. Then, cell viability was determined using CellTiter-Glo luminescent cell viability assay (Promega). The supernatant was removed carefully and 65 μl of the reconstituted reagent were added to each well and incubated with gentle shaking for 15 min at room temperature. Then, 60 μl of the solution was transferred to an opaque plate and luminescence (RLU) was measured using Synergy HT plate reader (Biotek).
Relative cell viability values of uninfected-treated versus uninfected-untreated cells were used to evaluate cytotoxicity of the compounds. Substances with a relative viability below 80% at the tested concentration were regarded as cytotoxic and retested at lower concentrations.
Reduction in the virus-mediated cytopathic effect (CPE) upon treatment with the compounds was calculated as follows: The response (RLU) of infected-untreated samples was subtracted from the response (RLU) of the infected-treated samples and then normalized to the viability of the corresponding uninfected sample resulting in % CPE reduction.
In the case of `CC(C)(C)OC(=O)N1C=C(c2ccnc(C(=O)N(O)Cc3ccccc3)c2)CCC1`, the inhibition at 2 µM was 3.9%.

For the molecule `O=C(NOCc1ccccc1)c1ccc(-c2ccccc2)cn1` [drawing 172], the inhibition at 2 µM is -4%.

Regarding `O=C(c1cc(N2CCCCC2)ccn1)N(O)CCCc1ccccc1` [drawing 203], the inhibition at 2 µM is 7.7%.

`O=C(c1cc(-c2ccc(Cl)cc2)ccn1)N(O)Cc1ccccc1` [drawing 219]: the inhibition at 2 µM is -6.7%.

Consider `O=C(c1cc2ccccc2cn1)N(O)CCCc1ccccc1`, for which the inhibition at 2 µM came to 4.4%.

Consider `CC(C)(C)OC(=O)N1C2C=C(c3ccnc(C(=O)N(O)Cc4ccccc4)c3)CC1CC2` (stereo not shown), for which the inhibition at 2 µM is -5.3%.

The series is the same for the next values; noted with them: Influenza A virus, H3N2, activity conc 5 (μM per method); read-out: CPE H3N2 reduction (%).
Consider `CC(C)(C)OC(=O)N1CCC=C(c2ccnc(C(=O)N(O)Cc3ccccc3)c2)C1` [drawing 256], for which the inhibition at 5 µM turned out to be 10.2%.

As to `NC(=O)c1cccc(-c2ccnc(C(=O)N(O)Cc3ccccc3)c2)c1` [drawing 221], the inhibition at 5 µM was -2.7%.

As for `O=C(NO)c1cc(NCc2ccccc2)ccn1`, the inhibition at 5 µM is -0.5%.

With `O=C(c1cc(-c2ccc(Cl)c(Cl)c2)ccn1)N(O)Cc1ccccc1` [drawing 220], the inhibition at 5 µM stood at 8.1%.

As for `CCONC(=O)c1ccc(-c2ccccc2)cn1` [drawing 173], the inhibition at 5 µM is -3%.

As for `O=C(c1cc2ccccc2cn1)N(Cc1ccccc1)OCc1ccccc1` [drawing 179], the inhibition at 5 µM was found to be 1.3%.

On to `O=C(c1cc(N2CCCCC2)cc[n+]1[O-])N(O)Cc1ccccc1`, for which the inhibition at 5 µM is -1.83%.

Still in this series, the particulars now being: Influenza A virus, H3N2, activity conc 10 (μM per method); read-out: CPE H3N2 reduction (%).
Turning to `O=C(c1cc(-c2ccccc2)ccn1)N(O)Cc1ccccc1` [drawing 211], the inhibition at 10 µM is -9.3%.

Staying with this series, now noted: Influenza A virus, H3N2, activity conc 12 (μM per method); read-out: CPE H3N2 reduction (%).
In the case of `O=C(NO)c1ccc(-c2ccccc2)cn1` [drawing 216], the inhibition at 12 µM was 21.7%.

Turning to `O=C(c1ccc(-c2ccccc2)cn1)N(O)Cc1ccccc1` [drawing 215], the inhibition at 12 µM is 13.4%.

Still in this series, the particulars now being: Influenza A virus, H3N2, activity conc 20 (μM per method); read-out: CPE H3N2 reduction (%).
For the molecule `O=C(NO)c1cc(NS(=O)(=O)Cc2cc(Cl)cc(Cl)c2)ccn1`, the inhibition at 20 µM stood at 28.9%.

On to `O=C(c1cc2ccccc2cn1)N(O)CCc1ccccc1` [drawing 202], for which the inhibition at 20 µM is -1.8%.

On to `CC(C)(C)OC(=O)N1CCC(c2ccnc(C(=O)N(O)Cc3ccccc3)c2)CC1`, for which the inhibition at 20 µM was determined as 31.3%.

Still in this series, the particulars now being: Influenza A virus, H3N2, activity conc 25 (μM per method); read-out: CPE H3N2 reduction (%).
Turning to `O=C(c1ccc(N2CCCC2)cn1)N(O)Cc1ccccc1` [drawing 180], the inhibition at 25 µM worked out at 1%.

Still in this series, the particulars now being: Influenza A virus, H3N2, activity conc 50 (μM per method); read-out: CPE H3N2 reduction (%).
Turning to `CN1CC=C(c2ccnc(C(=O)N(O)Cc3ccccc3)c2)CC1` [drawing 260], the inhibition at 50 µM is 10.6%.

With `O=C(NO)c1cc(N2CCOCC2)ccn1` [drawing 212], the inhibition at 50 µM was -7.1%.

Turning to `O=C(c1cc(C2CCNCC2)ccn1)N(O)Cc1ccccc1`, the inhibition at 50 µM was -1.4%.

Turning to `O=C(c1cc(N2CCC(N3CCCCC3)CC2)ccn1)N(O)Cc1ccccc1`, the inhibition at 50 µM was determined as 18.8%.

As to `O=C(c1cc2ccccc2cn1)N(O)Cc1ccccc1` [drawing 200], the inhibition at 50 µM was found to be 34.2%.

In the case of `CN(OCc1ccccc1)C(=O)c1cc2ccccc2cn1` [drawing 184], the inhibition at 50 µM turned out to be 0.6%.

Consider `O=C(NO)c1ccc(N2CCCC2)cn1` [drawing 204], for which the inhibition at 50 µM is -4.3%.

As for `O=C(c1cc(NS(=O)(=O)Cc2cccc(C(F)(F)F)c2)ccn1)N(O)Cc1ccccc1`, the inhibition at 50 µM worked out at 22.4%.

With `CN(C)CCNC(=O)c1cccc(-c2ccnc(C(=O)N(O)Cc3ccccc3)c2)c1` [drawing 230], the inhibition at 50 µM amounted to 8.9%.

For `Cc1cccc(C(=O)N(C)OCc2ccccc2)n1`, the inhibition at 50 µM was -2.3%.

Consider `O=C(c1cc(NS(=O)(=O)c2ccccc2)ccn1)N(O)Cc1ccccc1` [drawing 213], for which the inhibition at 50 µM was -5.2%.

Consider `CCONC(=O)c1ccccn1`, for which the inhibition at 50 µM was found to be 12.5%.

With `O=C(NO)c1cc(NS(=O)(=O)Cc2ccc(Cl)c(Cl)c2)ccn1`, the inhibition at 50 µM came to 53.4%.

Consider `CN(C)C1CCN(c2ccnc(C(=O)N(O)Cc3ccccc3)c2)CC1`, for which the inhibition at 50 µM came out at 12.3%.

Take `O=C(c1cc(C2=CCCNC2)ccn1)N(O)Cc1ccccc1`: the inhibition at 50 µM amounted to 9.5%.

Take `CN(O)C(=O)c1cc2ccccc2cn1` [drawing 199]: the inhibition at 50 µM was -0.6%.

With `CC(C)(C)OC(=O)NC1CCN(c2ccnc(C(=O)N(O)Cc3ccccc3)c2)CC1` [drawing 227], the inhibition at 50 µM was 8.3%.

In the case of `O=C(NO)c1cc(NS(=O)(=O)Cc2ccc(Cl)cc2)ccn1`, the inhibition at 50 µM is -3.98%.

As to `C[C@@H]1CN(c2ccnc(C(=O)N(O)Cc3ccccc3)c2)C[C@H](C)O1` [drawing 218], the inhibition at 50 µM is 10.5%.

For the molecule `O=C(c1cc(N2CCNCC2)ccn1)N(O)Cc1ccccc1`, the inhibition at 50 µM was -4.5%.

Consider `Nc1ccccc1NC(=O)c1ccc(C(=O)NO)nc1`, for which the inhibition at 50 µM is -5.53%.

As to `O=C(NO)c1cc2ccccc2cn1` [drawing 201], the inhibition at 50 µM was found to be 94.3%.

For the molecule `O=C(c1cc(N2CCC(F)CC2)ccn1)N(O)Cc1ccccc1`, the inhibition at 50 µM came out at 34%.

In the case of `NC1CCN(c2ccnc(C(=O)N(O)Cc3ccccc3)c2)CC1`, the inhibition at 50 µM turned out to be 3.2%.

Consider `CCONC(=O)c1cc(NCC2CCN(Cc3ccccc3)CC2)ccn1`, for which the inhibition at 50 µM worked out at 14.8%.

Take `O=C(NO)c1cc(NS(=O)(=O)Cc2cccc3cccnc23)ccn1`: the inhibition at 50 µM is 24.4%.

Take `O=C(c1cc(N2CCC(F)(F)CC2)ccn1)N(O)Cc1ccccc1`: the inhibition at 50 µM is -3.2%.

In the case of `CN(O)C(=O)c1cc(N2CCOCC2)ccn1`, the inhibition at 50 µM was 5.7%.

Turning to `O=C(NO)c1cc(NS(=O)(=O)Cc2cccc(F)c2)ccn1`, the inhibition at 50 µM was -2.4%.

For the molecule `O=C(NO)c1cc(NS(=O)(=O)Cc2ccc(F)cc2)ccn1`, the inhibition at 50 µM was -1.4%.

For the molecule `O=C(c1cc(C2=CCC3(CC2)OCCO3)ccn1)N(O)Cc1ccccc1`, the inhibition at 50 µM was found to be 5.4%.

Regarding `O=C(NO)c1cc(NS(=O)(=O)Cc2ccccc2F)ccn1`, the inhibition at 50 µM is -0.5%.

Still in this series, the particulars now being: Influenza A virus, H3N2, read-out: CPE H3N2 IC50 [μM].
`Cc1cc(-c2sc3nc(N)[nH]c(=O)c3c2C)ccc1Cl` [SAV-7620]: the IC50 came to 29 µM.

The series is the same for the next values; noted with them: Influenza A virus, H3N2, read-out: CPE H3N2 reduction (%), activity conc 50 (μM per method).
With `Cc1cc(-c2sc3nc(N)[nH]c(=O)c3c2C)ccc1Cl` [SAV-7620], the inhibition at 50 µM was determined as 57.8%.

On to `O=C(NO)c1cc(NS(=O)(=O)Cc2ccc(Cl)cc2Cl)ccn1`, for which the inhibition at 50 µM was 60.1%.

For `CCONC(=O)c1cc(N2CCOCC2)ccn1`, the inhibition at 50 µM came to 1.3%.

The same series, now with this note: Influenza A virus, H3N2; read-out: CPE H3N2 IC50.
Turning to `O=C(NO)c1cc2ccccc2cn1` [drawing 201], the IC50 came to 45 µM.

As for `O=C(NO)c1cc(NS(=O)(=O)Cc2cccc3cccnc23)ccn1`, the IC50 turned out to be 78 µM.

Still in this series, the particulars now being: activity conc 50 (μM per method).
Regarding `Cl.O=C(NO)c1cc(NS(=O)(=O)Cc2cc(Cl)cc(Cl)c2)ccn1` [drawing 276], the “CPE H3N2 reduction (%)” value stood at 9.3%.

As to `O=C(c1cc(N2CCOCC2)ccn1)N(O)Cc1ccccc1` [drawing 241], the “CPE H3N2 reduction (%)” value is −3.4%.

Consider `Cl.O=C(c1cc(N2CCOCC2)ccn1)N(O)Cc1ccccc1` [drawing 242], for which the “CPE H3N2 reduction (%)” value came out at 6.3%.

Test system in the next series: not given
Assay: not given
Conditions: not given
In turn, `Nc1nc2sc(-c3ccccc3)cc2c(=O)[nH]1` had a melting point of over 360 °C.

Turning to `CCONC(=O)c1cc(N2CCOCC2)ccn1.Cl` (hydrate or solvate), the melting point lay in the range of 200 to 202 °C.

In turn, `Cc1c(-c2ccccc2)sc2nc(NCCO)[nH]c(=O)c12` came in with a melting point of 227 to 229 °C.

Turning to `Cc1c(-c2ccc(Cl)c(F)c2)sc2nc(N)[nH]c(=O)c12`, the melting point was in the range of 350 to 370 °C.

Molecule `Cl.O=C(NO)c1cc(NS(=O)(=O)Cc2cccc(C(F)(F)F)c2)ccn1` gave a melting point of 201 to 204 °C.

The molecule `O=C(c1cc2ccccc2cn1)N(Cc1ccccc1)OCc1ccccc1` showed a melting point of 70 to 75 °C.

The term IC50 denotes the midpoint of a concentration-inhibition curve. What is called melting point is the temperature, or range, at which the solid turns liquid.
